Measurements published in US20230416679A1, “METHODS AND COMPOSITIONS FOR IN-VITRO AUGMENTATION OF MILK PRODUCTION FROM MAMMARY EPITHELIAL CELLS” (Wilk Technologies International Ltd., priority 2021, published 2023).

Tests used:
[1] = tested on: primary culture of bovine mammary epithelial cells; experiment: Milk protein (casein, whey) secretion to the medium (HPLC-UV); format: cell-based
Excerpt: For all the experiments, primary culture of bovine mammary epithelial cells were used. The cells were isolated from 3 lactating Holstein cows according to an established protocol (Cohen et al., 2015 supra). Study protocols were in compliance with the regulations of the Israeli Ministry of Health, under the supervision of the Department for Control of Animal Products, State of Israel Ministry of Agriculture Rural Development Veterinary Services and Animal Health. Certificate Nu: #80. After isolation, 60,000 cells were plated in a 35-mm plastic dish on glass cover slips for all florescence staining experiments. For production analysis, 150,000 cells were plated in a 60-mm plastic dish for lipids, protein, and lactose extraction. Oxygen consumption assay was performed by using Seahorse system (Agilent, USA); cells were plated in 24-well plate (20,000 cells/well) and incubated with DMEM/F12, with 0.15% (v/v) bovine serum albumin and insulin (1 μg/ml), hydrocortisone (0.5 μg/ml) and prolactin (1 μg/ml) for 48 h to induce lactogenic response. Then cells were treated with three different P. lentiscus extracts: ethyl acetate, hexane and chloroform, according to the protocol that was used before (Azaizeh et al., 2013). The extracts were diluted with DMEM/F12 medium supplemented with Dimethyl Sulfoxide (DMSO) in a final concentration of 0.1% for better dissolution of the extractions. Oleic acid was added to the treatment medium at a final concentration of […] to increase fat (triglycerol) synthesis to better enable the visualization of intracellular lipid droplets. The treatment was given in the presence of insulin (1 μg/ml), hydrocortisone (0.5 μg/ml) and prolactin (1 μg/ml). After 24 h of incubation, medium was collected for triglyceride and phospholipid quantification, and cells were harvested for cell counting, lipid, lactose or protein extraction. Otherwise, cells were fixed for florescence staining or plates taken to seahorse for oxygen consumption rate measurement. After treatment, 0.5 ml cultured medium was collected to HPLC equipped with UV detector. Protein content was determined in 220 nm wavelength by C-18 reverse phase column. Identification and quantification were determined by constructing a calibration curve of external standard of known protein concentrations which dissolved in a 50 mM phosphate buffer (PH=6.7). Identification for α casein, β casein and α lactalbumin were qualified as caseins (α and β casein) and whey (a lactalbumin) protein. Positive values indicate increased protein content whereas negative values indicate decreased protein content.

[2] = tested on: primary culture of bovine mammary epithelial cells; experiment: Milk lactose secretion to the medium (HPLC, refractive index detector); format: cell-based
Excerpt: For all the experiments, primary culture of bovine mammary epithelial cells were used. The cells were isolated from 3 lactating Holstein cows according to an established protocol (Cohen et al., 2015 supra). Study protocols were in compliance with the regulations of the Israeli Ministry of Health, under the supervision of the Department for Control of Animal Products, State of Israel Ministry of Agriculture Rural Development Veterinary Services and Animal Health. Certificate Nu: #80. After isolation, 60,000 cells were plated in a 35-mm plastic dish on glass cover slips for all florescence staining experiments. For production analysis, 150,000 cells were plated in a 60-mm plastic dish for lipids, protein, and lactose extraction. […] After 24 h of incubation, medium was collected for triglyceride and phospholipid quantification, and cells were harvested for cell counting, lipid, lactose or protein extraction. […] After treatment, 0.5 ml medium was collected to be analyzed using HPLC equipped with a refractive index detector at 68° C. […] Identification and quantification were determined by establishing a calibration curve of external standard of a known lactose concentration dissolved in water. […]

SMILES | protein secretion compared to control ([1]; 2 ppm, P=0.98) | lactose secretion [2] | casein secretion, higher than control ([1]; 1 ppm, P<0.05, FIG. 7C) [%] | whey secretion, higher than control ([1]; 1 ppm, P=0.05, FIG. 7D) [%] | increase of casein and whey secretion compared with control ([1]; between about 0.5 ppm and about 2.5 ppm, for example 1 ppm) [%]
O=C(O)c1cc(O)c(O)c(O)c1 [gallic acid] | did not change | increases | – | – | –
O=c1c(O)c(-c2cc(O)c(O)c(O)c2)oc2cc(O)cc(O)c12 [myricetin, Myricetin] | – | can increase | 126 | 124 | 30
